{"source": "patent US20260325605A1", "about": "“INHIBITORS” (Zealand Pharma A/S, priority 2022, published 2026)", "key": {"[1]": {"molecular_target": "T1, Kv1.1 (Homo sapiens, UniProt Q09470)", "T1 construct": "expressed in transfected cells", "T1 sequence (Q09470 whole entry)": "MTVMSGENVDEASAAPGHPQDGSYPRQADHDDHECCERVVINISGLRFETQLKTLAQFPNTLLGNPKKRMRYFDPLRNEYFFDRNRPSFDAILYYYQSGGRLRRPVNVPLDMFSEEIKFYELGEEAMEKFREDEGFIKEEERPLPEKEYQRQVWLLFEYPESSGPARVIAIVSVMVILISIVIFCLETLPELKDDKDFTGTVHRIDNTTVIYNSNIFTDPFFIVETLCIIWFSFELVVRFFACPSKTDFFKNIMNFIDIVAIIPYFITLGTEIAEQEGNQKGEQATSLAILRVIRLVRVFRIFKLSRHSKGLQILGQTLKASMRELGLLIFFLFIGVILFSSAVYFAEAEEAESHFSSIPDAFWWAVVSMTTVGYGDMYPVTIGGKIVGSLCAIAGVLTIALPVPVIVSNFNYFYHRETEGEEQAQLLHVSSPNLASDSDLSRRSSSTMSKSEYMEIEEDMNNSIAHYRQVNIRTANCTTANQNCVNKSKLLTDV", "experiment": "Patch clamp assay (QPatch), Kv1.1", "format": "cell-based"}, "[2]": {"experiment": "Example 6: Pharmacokinetic characterisation after s.c. administration", "format": "in vivo, rat (Sprague Dawley or Wistar)", "settings": "rat, 70 nmol/kg", "description": "Sprague Dawley or Wistar rats (males with a body weight of approximately 250-350 g) were given a single subcutaneous (s.c.) injection of each peptide to be tested.\nFollowing s.c. administration of the selected peptides (dose 70 nmol/kg, dosing volume either 2 or 5 mL/kg), blood samples were drawn at 15 min, 30 min, 45 min, 60 min, 90 min, 2 h, 3 h, 4 h post-dose. At each sampling time point, samples from the rats were drawn by sublingual bleeding or by tail cut. After last sampling the rats were sacrificed by O2/CO2 anaesthesia. The dosing vehicle was 10 mM phosphate, 0.8% NaCl, 0.05% Polysorbate 20 (pH 6.0).\nPlasma samples were analyzed after solid phase extraction (SPE) by liquid chromatography mass spectrometry (LC-MS/MS). Mean plasma concentrations were used for calculation of the pharmacokinetic parameters using the non-compartmental approach in Phoenix WinNonlin 6.4 or a later version. […]. AUCinf is the area under the plasma concentration−time curve extrapolated to infinity (AUCinf=AUClast+Clast/λz, where Clast is the last observed plasma concentration). Cmax is the maximum observed concentration, occurring at Tmax."}, "[3]": {"molecular_target": "T2, Kv1.2 (Homo sapiens, UniProt P16389)", "T2 construct": "expressed in transfected cells", "T2 sequence (P16389 whole entry)": "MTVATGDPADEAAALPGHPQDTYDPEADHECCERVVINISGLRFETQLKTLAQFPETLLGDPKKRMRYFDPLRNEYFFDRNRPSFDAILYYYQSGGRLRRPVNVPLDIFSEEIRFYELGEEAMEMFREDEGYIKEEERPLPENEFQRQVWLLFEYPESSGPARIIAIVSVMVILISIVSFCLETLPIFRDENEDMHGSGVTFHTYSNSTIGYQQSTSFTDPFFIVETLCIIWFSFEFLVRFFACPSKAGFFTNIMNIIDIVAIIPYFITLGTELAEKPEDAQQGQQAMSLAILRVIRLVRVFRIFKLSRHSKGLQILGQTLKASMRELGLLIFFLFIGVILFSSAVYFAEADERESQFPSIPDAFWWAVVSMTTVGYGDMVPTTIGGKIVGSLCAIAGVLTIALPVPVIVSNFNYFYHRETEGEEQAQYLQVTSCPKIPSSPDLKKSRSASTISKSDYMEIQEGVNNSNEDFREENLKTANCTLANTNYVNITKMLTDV", "experiment": "Patch clamp assay (QPatch), Kv1.2", "format": "cell-based"}, "[4]": {"molecular_target": "T3, Kv1.6 (Homo sapiens, UniProt P17658)", "T3 construct": "expressed in transfected cells", "T3 sequence (P17658 whole entry)": "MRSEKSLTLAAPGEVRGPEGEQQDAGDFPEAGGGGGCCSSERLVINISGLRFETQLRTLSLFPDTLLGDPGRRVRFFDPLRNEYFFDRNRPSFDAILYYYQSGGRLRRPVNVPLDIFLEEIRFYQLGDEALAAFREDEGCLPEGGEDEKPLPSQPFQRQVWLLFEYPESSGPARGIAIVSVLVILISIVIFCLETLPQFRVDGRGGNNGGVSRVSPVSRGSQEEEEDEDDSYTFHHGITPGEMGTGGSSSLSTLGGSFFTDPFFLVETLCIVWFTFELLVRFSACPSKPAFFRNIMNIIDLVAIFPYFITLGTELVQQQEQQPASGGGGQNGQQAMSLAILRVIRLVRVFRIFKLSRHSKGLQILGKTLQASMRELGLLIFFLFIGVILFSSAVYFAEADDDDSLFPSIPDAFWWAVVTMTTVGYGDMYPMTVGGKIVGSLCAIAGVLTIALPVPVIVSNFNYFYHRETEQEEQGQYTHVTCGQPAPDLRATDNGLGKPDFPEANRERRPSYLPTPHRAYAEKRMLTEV", "experiment": "Patch clamp assay (QPatch), Kv1.6", "format": "cell-based", "experimental": "Selectivity of Kv1.3 inhibitor peptides for Kv1.3 over other potassium ion channels (Kv1.1, Kv1.2 and Kv1.6) was determined using patch clamp assay.\nChinese Hamster Ovary (CHO) cell lines stably expressing exogenous human α-subunits of each potassium ion channel were grown and passaged under standard culture conditions.\nThe automated, chip-based planar patch clamp device QPatch® was used to quantitate the ionic currents. All recordings were made in the conventional whole-cell configuration after establishment of gigaohm seals. […] During experiments 0.1% (v/v) BSA was included as a vehicle in all external recording solutions. Currents were elicited from a holding potential of −80 mV using a voltage protocol, which shifted the voltage to 30 mV for 500 ms every 15 s.\nConcentration-response relationships were established by cumulatively applying seven escalating concentrations of test sample to an individual cell with a recording period of 2 min per compound application.\nThe efficacy was determined as the mean charge for the last three sweeps at the end of each concentration application period from the cursor positions. The percent inhibition for each test dose application period was calculated as the reduction in mean cursor value (charge) relative to the cursor value measured at the end of the vehicle period and used to calculate the IC50 from the concentration response curve."}, "[5]": {"molecular_target": "T4, Kv1.3 (Homo sapiens, UniProt P22001)", "T4 construct": "expressed in transfected cells", "T4 sequence (P22001 whole entry)": "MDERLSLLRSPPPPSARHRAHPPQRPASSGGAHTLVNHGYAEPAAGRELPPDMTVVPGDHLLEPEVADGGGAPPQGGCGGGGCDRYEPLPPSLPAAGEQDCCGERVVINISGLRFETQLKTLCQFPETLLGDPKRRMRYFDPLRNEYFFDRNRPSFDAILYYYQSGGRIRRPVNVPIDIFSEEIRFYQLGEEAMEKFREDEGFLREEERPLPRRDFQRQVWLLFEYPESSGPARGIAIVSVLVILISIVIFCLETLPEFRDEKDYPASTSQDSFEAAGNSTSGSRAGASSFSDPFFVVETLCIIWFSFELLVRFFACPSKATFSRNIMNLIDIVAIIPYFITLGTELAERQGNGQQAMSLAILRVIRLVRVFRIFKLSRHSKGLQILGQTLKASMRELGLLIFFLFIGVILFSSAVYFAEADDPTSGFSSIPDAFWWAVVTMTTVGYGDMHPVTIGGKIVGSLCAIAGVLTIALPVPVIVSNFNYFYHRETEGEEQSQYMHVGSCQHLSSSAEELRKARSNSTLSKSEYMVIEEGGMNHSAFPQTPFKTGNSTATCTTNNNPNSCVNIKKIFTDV", "experiment": "Patch clamp assay (QPatch), Kv1.3", "format": "cell-based", "settings": "CHO cells stably expressing human Kv1.3, read-out: Potency IC50, Kv1.3"}, "[6]": {"test_system": "KLH-induced DTH ear swelling in rats", "experiment": "Example 11: Minimal effective dose in KLH-induced DTH model", "format": "in vivo, rat (Lewis)", "description": "Healthy male Lewis rats aged 8-9 weeks were immunized on day 0 with 200 μL keyhole limpet hemocyanin (KLH) (from Sigma, cat.no. H7017) (4 mg/mL) emulsified in complete Freund's adjuvant (CFA) (Difco, cat.no. 263810) subcutaneously (SC) at the base of the tail.\nTo elicit a KLH-specific T cell-mediated local inflammation, rats were challenged intradermally at indicated timepoints (days 7, 9, 11 or 13 post-immunisation) with 40 μL KLH/NaCl 0.9% (2 mg/mL) in the left ear. Ear edemas were measured after 24-48 hrs and the right ear that was left untreated served as control. A schematic overview of the protocol is depicted in FIG. 1. […]\nThis study was conducted as described in example 8 with the difference that the rats were only challenged intradermally at days 7 or 11 post-immunisation (i.e. day 1 and day 5 after treatment) with 40 μL KLH/NaCl 0.9% (2 mg/mL) in the left ear. A schematic overview of the protocol is depicted in FIG. 5.\nThe doses of Kv1.3 inhibitor treatment able to reduce the DTH ear swelling response was investigated by comparing the response in rats (n=8/group) treated with vehicle to that of rats treated with different doses of peptide 100. Vehicle or peptide 100 dissolved in vehicle was administered SC (2 mL/kg) on day 6. The test dose of Kv1.3 inhibitor was 1, 3, 10, 30 or 100 nmol/kg. Test vehicle was 10 mM phosphate, 0.8% w/v NaCl, 0.05% w/v polysorbate20, pH 6.\nAs readout of efficacy, the thickness of the induced ear 24 hrs and 48 hrs after respective ear challenge was measured and compared to vehicle control. Ear thickness 24 hrs after challenge is shown in Table 15 and FIG. 8 and ear thickness 48 hrs after challenge is shown in Table 16 and FIG. 9."}}, "data": [{"substance": "H-P[Nle]E[Nle]RC(1)SASVEC(2)KQKC(3)LAAIGSIFGKC(1)[Nle]NKKC(2)KC(3)YPR-OH [Peptide 100]", "values": [{"measurement": "IC50", "setting": "[1]; QPatch, CHO cells stably expressing human Kv1.1, read-out: Potency IC50, Kv1.1", "value": "> 3000", "unit": "nM"}, {"measurement": "Selectivity Kv1.1/Kv1.3", "setting": "[1]; ratio of IC50 Kv1.1/Kv1.3", "value": ">9100"}, {"measurement": "AUCINF", "setting": "[2]; plasma", "value": 0.112, "unit": "µM·h"}, {"measurement": "Cmax", "setting": "[2]; plasma", "value": 52.6, "unit": "nM"}, {"measurement": "T1/2", "setting": "[2]; plasma terminal elimination half-life", "value": 1.04, "unit": "h"}, {"measurement": "IC50", "setting": "[3]; QPatch, CHO cells stably expressing human Kv1.2, read-out: Potency IC50, Kv1.2", "value": 1120, "unit": "nM"}, {"measurement": "Selectivity Kv1.2/Kv1.3", "setting": "[3]; ratio of IC50 Kv1.2/Kv1.3", "value": 3384}, {"measurement": "IC50", "setting": "[4]; QPatch, CHO cells stably expressing human Kv1.6, read-out: Potency IC50, Kv1.6", "value": "> 3000", "unit": "nM"}, {"measurement": "Selectivity Kv1.6/Kv1.3", "setting": "[4]; ratio of IC50 Kv1.6/Kv1.3", "value": ">9100"}, {"measurement": "IC50", "setting": "[5]", "value": 0.33, "unit": "nM"}, {"measurement": "Mean ear thickness of KLH-induced ear", "setting": "[6]; 1 nmol/kg s.c., challenge day 11, 24 hrs post-challenge, vehicle 0.902, p=0.0872", "value": "0.872±0.037", "unit": "mm"}, {"measurement": "Mean ear thickness of KLH-induced ear", "setting": "[6]; 1 nmol/kg s.c., challenge day 11, 48 hrs post-challenge, vehicle 0.876, p=0.1953", "value": "0.854±0.038", "unit": "mm"}, {"measurement": "Mean ear thickness of KLH-induced ear", "setting": "[6]; 3 nmol/kg s.c., challenge day 11, 24 hrs post-challenge, vehicle 0.902, p<0.0001", "value": "0.814±0.014", "unit": "mm"}, {"measurement": "Mean ear thickness of KLH-induced ear", "setting": "[6]; 3 nmol/kg s.c., challenge day 11, 48 hrs post-challenge, vehicle 0.876, p=0.0001", "value": "0.814±0.019", "unit": "mm"}, {"measurement": "Mean ear thickness of KLH-induced ear", "setting": "[6]; 10 nmol/kg s.c., challenge day 11, 24 hrs post-challenge, vehicle 0.902, p<0.0001", "value": "0.796±0.043", "unit": "mm"}, {"measurement": "Mean ear thickness of KLH-induced ear", "setting": "[6]; 10 nmol/kg s.c., challenge day 11, 48 hrs post-challenge, vehicle 0.876, p=0.0001", "value": "0.794±0.036", "unit": "mm"}, {"measurement": "Mean ear thickness of KLH-induced ear", "setting": "[6]; 30 nmol/kg s.c., challenge day 11, 24 hrs post-challenge, vehicle 0.902, p<0.0001", "value": "0.754±0.017", "unit": "mm"}, {"measurement": "Mean ear thickness of KLH-induced ear", "setting": "[6]; 30 nmol/kg s.c., challenge day 11, 48 hrs post-challenge, vehicle 0.876, p<0.0001", "value": "0.736±0.03", "unit": "mm"}, {"measurement": "Mean ear thickness of KLH-induced ear", "setting": "[6]; 100 nmol/kg s.c., challenge day 11, 24 hrs post-challenge, vehicle 0.902, p<0.0001", "value": "0.751±0.009", "unit": "mm"}, {"measurement": "Mean ear thickness of KLH-induced ear", "setting": "[6]; 100 nmol/kg s.c., challenge day 11, 48 hrs post-challenge, vehicle 0.876, p<0.0001", "value": "0.731±0.016", "unit": "mm"}, {"measurement": "Mean ear thickness of KLH-induced ear", "setting": "[6]; 24 hrs post-challenge, day 2 post-treatment, 100 nmol/kg SC", "value": 0.736, "unit": "mm"}, {"measurement": "Mean ear thickness of KLH-induced ear", "setting": "[6]; 24 hrs post-challenge, day 6 post-treatment, 1 nmol/kg SC", "value": 0.872, "unit": "mm"}, {"measurement": "Mean ear thickness of KLH-induced ear", "setting": "[6]; 24 hrs post-challenge, day 6 post-treatment, 3 nmol/kg SC", "value": 0.814, "unit": "mm"}, {"measurement": "Mean ear thickness of KLH-induced ear", "setting": "[6]; 24 hrs post-challenge, day 6 post-treatment, 10 nmol/kg SC", "value": 0.796, "unit": "mm"}, {"measurement": "Mean ear thickness of KLH-induced ear", "setting": "[6]; 24 hrs post-challenge, day 6 post-treatment, 30 nmol/kg SC", "value": 0.754, "unit": "mm"}, {"measurement": "Mean ear thickness of KLH-induced ear", "setting": "[6]; 24 hrs post-challenge, day 6 post-treatment, 100 nmol/kg SC", "value": 0.751, "unit": "mm"}, {"measurement": "Mean ear thickness of KLH-induced ear", "setting": "[6]; 48 hrs post-challenge, day 3 post-treatment, 100 nmol/kg SC", "value": 0.671, "unit": "mm"}, {"measurement": "Mean ear thickness of KLH-induced ear", "setting": "[6]; 48 hrs post-challenge, day 7 post-treatment, 1 nmol/kg SC", "value": 0.854, "unit": "mm"}, {"measurement": "Mean ear thickness of KLH-induced ear", "setting": "[6]; 48 hrs post-challenge, day 7 post-treatment, 3 nmol/kg SC", "value": 0.814, "unit": "mm"}, {"measurement": "Mean ear thickness of KLH-induced ear", "setting": "[6]; 48 hrs post-challenge, day 7 post-treatment, 10 nmol/kg SC", "value": 0.794, "unit": "mm"}, {"measurement": "Mean ear thickness of KLH-induced ear", "setting": "[6]; 48 hrs post-challenge, day 7 post-treatment, 30 nmol/kg SC", "value": 0.736, "unit": "mm"}, {"measurement": "Mean ear thickness of KLH-induced ear", "setting": "[6]; 48 hrs post-challenge, day 7 post-treatment, 100 nmol/kg SC", "value": 0.731, "unit": "mm"}, {"measurement": "minimal dose to obtain effect", "setting": "[6]; KLH-induced DTH model, s.c.", "value": 3, "unit": "nmol/kg"}, {"measurement": "Mean ear thickness of KLH-induced ear", "setting": "[6]; s.c. day 6, dose not given, challenge day 7, 24 hrs post-challenge, vehicle 0.849, p<0.0001", "value": "0.736±0.026", "unit": "mm"}, {"measurement": "Mean ear thickness of KLH-induced ear", "setting": "[6]; s.c. day 6, dose not given, challenge day 7, 48 hrs post-challenge, vehicle 0.777, p<0.0001", "value": "0.671±0.022", "unit": "mm"}]}]}
